This passage reports IC50 results from patent publication US11661403B2, “Oxadiazole compounds” (Vivace Therapeutics, Inc., priority 2018, dated 2023).

Usually IC50 stands for the concentration that gives 50% inhibition.

The first experiment relates to 8XTBD luciferase reporter (YAP) in HEK293T cells. The experiment in a line: YAP Reporter Assay. The note with it: Homo sapiens, HEK-293T; HEK293T cells stably transfected with 8XTBD luciferase reporter and pRLTK; 24-hr incubation; top concentration 3 μM; read-out: Firefly Luciferase IC50. It is filed as cell-based. Background: Reporter assays use an easily measured gene product as a stand-in for the process of interest.
Turning to `CC(C)(C#N)Cc1nnc(-c2ccccc2Nc2ccc(C(F)(F)F)cc2)o1` [Compound 89, 2,2-dimethyl-3-(5-(2-((4-(trifluoromethyl)phenyl)amino)phenyl)-1,3,4-oxadiazol-2-yl)propanenitrile], the 50% inhibitory concentration (IC50) lay in the range of 100 to 1000 nM.
Same read-out and setting: next, `CCc1nnc(-c2ccccc2Nc2ccc(C(F)(F)F)cc2)o1` [Compound 90, 2-(5-ethyl-1,3,4-oxadiazol-2-yl)-N-(4-(trifluoromethyl)phenyl)aniline]: 100 to 1000 nM; `CC(C)NCCc1nnc(-c2ccccc2Nc2ccc(C(F)(F)F)cc2)o1` [Compound 91, 2-(5-(2-(isopropylamino)ethyl)-1,3,4-oxadiazol-2-yl)-N-(4-(trifluoromethyl)phenyl)aniline]: 1000 to 5000 nM; `CC(C)N(C#N)CCc1nnc(-c2ccccc2Nc2ccc(C(F)(F)F)cc2)o1` [Compound 93, N-isopropyl-N-(2-(5-(2-((4-(trifluoromethyl)phenyl)amino)phenyl)-1,3,4-oxadiazol-2-yl)ethyl)cyanamide]: 100 to 1000 nM.
Still for that read-out and setting: next, `CCNCCc1nnc(-c2ccccc2Nc2ccc(C(F)(F)F)cc2)o1` [Compound 94, 2-(5-(2-(ethylamino)ethyl)-1,3,4-oxadiazol-2-yl)-N-(4-(trifluoromethyl)phenyl)aniline]: 1000 to 5000 nM; `CCN(C#N)CCc1nnc(-c2ccccc2Nc2ccc(C(F)(F)F)cc2)o1` [Compound 96, N-ethyl-N-(2-(5-(2-((4-(trifluoromethyl)phenyl)amino)phenyl)-1,3,4-oxadiazol-2-yl)ethyl)cyanamide]: under 100 nM; `CC(C)NCc1nnc(-c2ccccc2Nc2ccc(C(F)(F)F)cc2)o1` [Compound 97, 2-(5-((isopropylamino)methyl)-1,3,4-oxadiazol-2-yl)-N-(4-(trifluoromethyl)phenyl)aniline]: 1000 to 5000 nM.
In the case of `CC(C)N(C#N)Cc1nnc(-c2ccccc2Nc2ccc(C(F)(F)F)cc2)o1` [Compound 99, N-isopropyl-N-((5-(2-((4-(trifluoromethyl)phenyl)amino)phenyl)-1,3,4-oxadiazol-2-yl)methyl)cyanamide], the IC50 was in the range of 100 to 1000 nM.
Same read-out and setting: next, `CCNCc1nnc(-c2ccccc2Nc2ccc(C(F)(F)F)cc2)o1` [Compound 100, 2-(5-((ethylamino)methyl)-1,3,4-oxadiazol-2-yl)-N-(4-(trifluoromethyl)phenyl)aniline]: 100 to 1000 nM; `CCN(C#N)Cc1nnc(-c2ccccc2Nc2ccc(C(F)(F)F)cc2)o1` [Compound 102, N-ethyl-N-((5-(2-((4-(trifluoromethyl)phenyl)amino)phenyl)-1,3,4-oxadiazol-2-yl)methyl)cyanamide]: under 100 nM; `CC(C)(C(=O)O)c1nnc(-c2ccccc2Nc2ccc(C(F)(F)F)cc2)o1` [Compound 103, 2-methyl-2-(5-(2-((4-(trifluoromethyl)phenyl)amino)phenyl)-1,3,4-oxadiazol-2-yl)propanoic Acid]: 100 to 1000 nM.
The same measure, in the same setting: the result for `NCCc1nnc(-c2ccccc2Nc2ccc(C(F)(F)F)cc2)o1` [Compound 104, 2-(5-(2-aminoethyl)-1,3,4-oxadiazol-2-yl)-N-(4-(trifluoromethyl)phenyl)aniline] reads 1000 to 5000 nM.
On to `C=CC(=O)NCc1nnc(-c2ccccc2Nc2ccc(C(F)(F)F)cc2)o1` [Compound 108, N-((5-(2-((4-(trifluoromethyl)phenyl)amino)phenyl)-1,3,4-oxadiazol-2-yl)methyl)acrylamide], for which the IC50 was under 100 nM.
The same measure, in the same setting: the result for `N#CCNC(=O)c1nnc(-c2ccccc2Nc2ccc(C(F)(F)F)cc2)o1` [Compound 114, N-(cyanomethyl)-5-(2-((4-(trifluoromethyl)phenyl)amino)phenyl)-1,3,4-oxadiazole-2-carboxamide] reads under 100 nM.
On the same count and under the same terms, next, `C#CCCNC(=O)c1nnc(-c2ccccc2Nc2ccc(C(F)(F)F)cc2)o1` [Compound 115, N-(but-3-yn-1-yl)-5-(2-((4-(trifluoromethyl)phenyl)amino)phenyl)-1,3,4-oxadiazole-2-carboxamide]: under 100 nM.
On the same count and under the same terms, next, `C#CCNC(=O)c1nnc(-c2ccccc2Nc2ccc(C(F)(F)F)cc2)o1` [Compound 116, N-(prop-2-yn-1-yl)-5-(2-((4-(trifluoromethyl)phenyl)amino)phenyl)-1,3,4-oxadiazole-2-carboxamide]: under 100 nM.
For the compound `C/C=C/c1nnc(-c2ccccc2Nc2ccc(C(F)(F)F)cc2)o1` [Compound 117, (E)-2-(5-(prop-1-en-1-yl)-1,3,4-oxadiazol-2-yl)-N-(4-(trifluoromethyl)phenyl)aniline], the IC50 lay in the range of 100 to 1000 nM.
For `O=C(O)Cc1nnc(-c2ccccc2Nc2ccc(C(F)(F)F)cc2)o1` [Compound 119, 2-(5-(2-((4-(trifluoromethyl)phenyl)amino)phenyl)-1,3,4-oxadiazol-2-yl)acetic acid], the IC50 was 100 to 1000 nM.
The same measure, in the same setting: the result for `C#CC(O)Cc1nnc(-c2ccccc2Nc2ccc(C(F)(F)F)cc2)o1` (stereo not shown) [Compound 120, 1-(5-(2-((4-(trifluoromethyl)phenyl)amino)phenyl)-1,3,4-oxadiazol-2-yl)but-3-yn-2-ol] reads under 100 nM; that for `OC(CBr)c1nnc(-c2ccccc2Nc2ccc(C(F)(F)F)cc2)o1` (stereo not shown) [Compound 121, 2-bromo-1-(5-(2-((4-(trifluoromethyl)phenyl)amino)phenyl)-1,3,4-oxadiazol-2-yl)ethan-1-ol], under 100 nM; that for `FC(F)(F)c1ccc(Nc2ccccc2-c2nnc(C3CO3)o2)cc1` (stereo not shown) [Compound 122, 2-(5-(oxiran-2-yl)-1,3,4-oxadiazol-2-yl)-N-(4-(trifluoromethyl)phenyl)aniline], under 100 nM.
Same read-out and setting: next, `C=Cc1nnc(-c2ccccc2Nc2ccc(C(F)(F)F)cc2)o1` [Compound 123, N-(4-(trifluoromethyl)phenyl)-2-(5-vinyl-1,3,4-oxadiazol-2-yl)aniline]: under 100 nM; `C#CCC(O)c1nnc(-c2ccccc2Nc2ccc(C(F)(F)F)cc2)o1` (stereo not shown) [Compound 124, 1-(5-(2-((4-(trifluoromethyl)phenyl)amino)phenyl)-1,3,4-oxadiazol-2-yl)but-3-yn-1-ol]: under 100 nM; `N#CCCc1nnc(-c2ccccc2Nc2ccc(C(F)(F)F)cc2)o1` [Compound 126, 3-(5-(2-((4-(trifluoromethyl)phenyl)amino)phenyl)-1,3,4-oxadiazol-2-yl)propanenitrile]: 100 to 1000 nM.
The same measure, in the same setting: the result for `CN(C#N)CCCc1nnc(-c2ccccc2Nc2ccc(C(F)(F)F)cc2)o1` [Compound 129, N-methyl-N-(3-(5-(2-((4-(trifluoromethyl)phenyl)amino)phenyl)-1,3,4-oxadiazol-2-yl)propyl)cyanamide] reads under 100 nM; that for `CC(O)(CC#N)c1nnc(-c2ccccc2Nc2ccc(C(F)(F)F)cc2)o1` (stereo not shown) [Compound 130, 3-hydroxy-3-(5-(2-((4-(trifluoromethyl)phenyl)amino)phenyl)-1,3,4-oxadiazol-2-yl)butanenitrile], under 100 nM.
In the case of `CC1(c2nnc(-c3ccccc3Nc3ccc(C(F)(F)F)cc3)o2)CO1` (stereo not shown) [Compound 132, 2-(5-(2-methyloxiran-2-yl)-1,3,4-oxadiazol-2-yl)-N-(4-(trifluoromethyl)phenyl)aniline], the IC50 is under 100 nM.
The same measure, in the same setting: the result for `C=C(C)c1nnc(-c2ccccc2Nc2ccc(C(F)(F)F)cc2)o1` [Compound 133, 2-(5-(prop-1-en-2-yl)-1,3,4-oxadiazol-2-yl)-N-(4-(trifluoromethyl)phenyl)aniline] reads 100 to 1000 nM; that for `CC(O)(CN)c1nnc(-c2ccccc2Nc2ccc(C(F)(F)F)cc2)o1` (stereo not shown) [Compound 134, 1-amino-2-(5-(2-((4-(trifluoromethyl)phenyl)amino)phenyl)-1,3,4-oxadiazol-2-yl)propan-2-ol], 100 to 1000 nM; that for `CCC(C)(O)c1nnc(-c2ccccc2Nc2ccc(C(F)(F)F)cc2)o1` (stereo not shown) [Compound 135, 2-(5-(2-((4-(trifluoromethyl)phenyl)amino)phenyl)-1,3,4-oxadiazol-2-yl)butan-2-ol], under 100 nM.
On the same count and under the same terms, next, `NC1(Cc2nnc(-c3ccccc3Nc3ccc(C(F)(F)F)cc3)o2)CC1` [Compound 136, 2-(5-((1-aminocyclopropyl)methyl)-1,3,4-oxadiazol-2-yl)-N-(4-(trifluoromethyl)phenyl)aniline]: 100 to 1000 nM; `N#CCc1nnc(-c2ccccc2Nc2ccc(C(F)(F)F)cc2)o1` [Compound 137, 2-(5-(2-((4-(trifluoromethyl)phenyl)amino)phenyl)-1,3,4-oxadiazol-2-yl)acetonitrile]: 100 to 1000 nM.
Same read-out and setting: next, `CN(C#N)CC1(c2nnc(-c3ccccc3Nc3ccc(C(F)(F)F)cc3)o2)CC1` [Compound 140, N-methyl-N-((1-(5-(2-((4-(trifluoromethyl)phenyl)amino)phenyl)-1,3,4-oxadiazol-2-yl)cyclopropyl)methyl)cyanamide]: under 100 nM; `CN(C#N)C(C)(C)Cc1nnc(-c2ccccc2Nc2ccc(C(F)(F)F)cc2)o1` [Compound 143, N-methyl-N-(2-methyl-1-(5-(2-((4-(trifluoromethyl)phenyl)amino)phenyl)-1,3,4-oxadiazol-2-yl)propan-2-yl)cyanamide]: 1000 to 5000 nM.

Still in this experiment, the particulars now being: Homo sapiens, HEK-293T; […]; 24-hr incubation; top concentration 3 μM; read-out: Firefly Luciferase IC50.
With `CC(C)(C(=O)NCC#N)c1nnc(-c2ccccc2Nc2ccc(C(F)(F)F)cc2)o1` [Compound 110, N-(cyanomethyl)-2-methyl-2-(5-(2-((4-(trifluoromethyl)phenyl)amino)phenyl)-1,3,4-oxadiazol-2-yl)propanamide], the IC50 lay within 1000 to 5000 nM.
Still for that read-out and setting: the result for `C#CCNC(=O)C(C)(C)c1nnc(-c2ccccc2Nc2ccc(C(F)(F)F)cc2)o1` [Compound 112, 2-methyl-N-(prop-2-yn-1-yl)-2-(5-(2-((4-(trifluoromethyl)phenyl)amino)phenyl)-1,3,4-oxadiazol-2-yl)propanamide] reads 1000 to 5000 nM; that for `N#CCCNC(=O)c1nnc(-c2ccccc2Nc2ccc(C(F)(F)F)cc2)o1` [Compound 113, N-(2-cyanoethyl)-5-(2-((4-(trifluoromethyl)phenyl)amino)phenyl)-1,3,4-oxadiazole-2-carboxamide], under 100 nM.
